Measurements from patent publication US20220009920A1 (GB005, Inc., priority 2020, published 2022).

Key:
Test in all cases: Large panel kinase profiling
Type in all cases: biochemical
Settings in all cases: 1 μM test article, 1 mM ATP
GSK3A = molecular target: T1, GSK3A (Homo sapiens, UniProt P49840)
T1 construct: AssayQuant Technologies, Inc. (service provider)
Method in brief: (§1)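 Kinase activity was followed with the PhosphoSens CSox-Sensor platform, testing compound at 1 μM in the presence of 1 mM ATP. Reactions ran at 30° C. and fluorescence (Ex 360 nm/Em 485 nm) was read kinetically every 1 min.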

EPHA7 = EPHA7 (Homo sapiens, UniProt Q15375)
EPHA7, sequence (Q15375 28-998, species assumed): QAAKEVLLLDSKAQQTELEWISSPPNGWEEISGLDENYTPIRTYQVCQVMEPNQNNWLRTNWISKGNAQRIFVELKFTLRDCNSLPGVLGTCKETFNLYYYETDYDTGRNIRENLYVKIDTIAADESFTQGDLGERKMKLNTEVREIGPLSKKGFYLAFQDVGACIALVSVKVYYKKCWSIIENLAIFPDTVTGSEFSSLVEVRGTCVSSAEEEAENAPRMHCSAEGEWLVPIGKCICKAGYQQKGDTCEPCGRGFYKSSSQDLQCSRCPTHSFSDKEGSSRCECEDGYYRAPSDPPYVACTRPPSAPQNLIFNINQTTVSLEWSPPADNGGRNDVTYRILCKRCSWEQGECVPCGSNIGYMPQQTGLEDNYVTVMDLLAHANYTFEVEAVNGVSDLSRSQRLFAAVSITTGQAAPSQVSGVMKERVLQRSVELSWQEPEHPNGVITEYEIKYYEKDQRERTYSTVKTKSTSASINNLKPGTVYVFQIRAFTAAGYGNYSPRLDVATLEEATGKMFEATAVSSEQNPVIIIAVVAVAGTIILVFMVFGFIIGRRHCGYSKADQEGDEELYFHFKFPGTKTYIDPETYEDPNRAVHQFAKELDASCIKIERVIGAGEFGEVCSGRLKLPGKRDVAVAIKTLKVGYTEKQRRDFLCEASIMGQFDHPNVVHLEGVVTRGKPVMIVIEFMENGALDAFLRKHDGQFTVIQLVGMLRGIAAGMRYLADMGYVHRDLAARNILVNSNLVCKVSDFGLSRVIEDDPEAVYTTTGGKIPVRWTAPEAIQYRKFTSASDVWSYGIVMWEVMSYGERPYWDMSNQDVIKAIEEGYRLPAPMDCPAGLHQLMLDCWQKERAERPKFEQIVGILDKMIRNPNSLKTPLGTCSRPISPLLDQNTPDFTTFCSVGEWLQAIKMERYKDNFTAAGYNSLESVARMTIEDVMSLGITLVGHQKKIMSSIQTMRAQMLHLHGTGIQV
Method in brief: as §1

SRPK2 = molecular target: T2, SRPK2 (Homo sapiens, UniProt P78362)
T2 construct: AssayQuant Technologies, Inc. (contract assay)
T2 sequence (P78362 whole entry, species assumed): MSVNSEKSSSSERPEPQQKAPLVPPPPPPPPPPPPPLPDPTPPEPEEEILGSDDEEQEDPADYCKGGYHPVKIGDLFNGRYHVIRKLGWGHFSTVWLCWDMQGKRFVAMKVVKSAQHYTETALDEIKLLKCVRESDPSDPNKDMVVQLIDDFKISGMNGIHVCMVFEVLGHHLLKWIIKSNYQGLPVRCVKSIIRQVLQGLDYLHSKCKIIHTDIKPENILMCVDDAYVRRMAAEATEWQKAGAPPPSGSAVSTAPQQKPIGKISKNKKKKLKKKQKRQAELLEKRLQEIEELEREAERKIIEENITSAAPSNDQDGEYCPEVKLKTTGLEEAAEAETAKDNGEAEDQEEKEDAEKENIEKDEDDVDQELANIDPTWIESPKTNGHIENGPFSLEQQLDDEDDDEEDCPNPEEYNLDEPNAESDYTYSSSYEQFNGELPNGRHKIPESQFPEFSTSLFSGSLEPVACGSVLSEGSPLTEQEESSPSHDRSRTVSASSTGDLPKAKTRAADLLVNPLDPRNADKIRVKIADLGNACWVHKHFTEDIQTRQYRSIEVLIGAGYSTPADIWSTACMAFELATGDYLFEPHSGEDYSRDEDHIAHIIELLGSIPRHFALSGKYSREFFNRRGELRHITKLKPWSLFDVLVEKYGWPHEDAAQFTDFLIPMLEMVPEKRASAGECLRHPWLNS
Method in brief: as §1

MERTK/MER = molecular target: T3, MERTK/MER (Homo sapiens, UniProt Q12866)
T3 construct: AssayQuant Technologies, Inc. (assay service)
T3 sequence (Q12866 21-999): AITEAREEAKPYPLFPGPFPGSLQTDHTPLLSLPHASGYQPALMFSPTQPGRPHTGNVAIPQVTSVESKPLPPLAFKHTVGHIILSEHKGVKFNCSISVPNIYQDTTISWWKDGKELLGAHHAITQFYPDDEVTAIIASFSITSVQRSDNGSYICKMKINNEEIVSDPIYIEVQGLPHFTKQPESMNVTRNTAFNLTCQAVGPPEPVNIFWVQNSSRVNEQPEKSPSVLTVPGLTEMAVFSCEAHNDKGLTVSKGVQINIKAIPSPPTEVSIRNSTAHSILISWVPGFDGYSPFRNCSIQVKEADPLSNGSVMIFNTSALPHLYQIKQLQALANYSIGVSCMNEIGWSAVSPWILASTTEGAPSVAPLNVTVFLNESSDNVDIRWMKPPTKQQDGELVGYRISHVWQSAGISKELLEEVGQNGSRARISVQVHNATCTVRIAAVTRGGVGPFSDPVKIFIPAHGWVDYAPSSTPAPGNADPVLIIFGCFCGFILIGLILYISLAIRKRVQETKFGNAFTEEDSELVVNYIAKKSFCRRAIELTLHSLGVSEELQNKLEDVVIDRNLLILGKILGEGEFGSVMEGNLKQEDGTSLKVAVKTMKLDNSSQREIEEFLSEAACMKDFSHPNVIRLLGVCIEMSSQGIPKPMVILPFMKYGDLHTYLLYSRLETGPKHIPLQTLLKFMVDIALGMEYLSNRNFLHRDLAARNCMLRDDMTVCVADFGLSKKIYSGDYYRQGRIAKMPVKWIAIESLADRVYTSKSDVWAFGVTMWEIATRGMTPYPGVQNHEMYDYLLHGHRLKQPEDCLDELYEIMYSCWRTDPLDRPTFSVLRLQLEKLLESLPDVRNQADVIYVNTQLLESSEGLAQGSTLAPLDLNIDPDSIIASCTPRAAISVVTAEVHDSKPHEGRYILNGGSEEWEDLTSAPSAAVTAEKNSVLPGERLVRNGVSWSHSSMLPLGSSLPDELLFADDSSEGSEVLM
Method in brief: as §1

TAOK3 = molecular target: T4, TAOK3 (Homo sapiens, UniProt Q9H2K8)
T4 construct: AssayQuant Technologies, Inc. (contract assay)
T4 sequence (Q9H2K8 1-898): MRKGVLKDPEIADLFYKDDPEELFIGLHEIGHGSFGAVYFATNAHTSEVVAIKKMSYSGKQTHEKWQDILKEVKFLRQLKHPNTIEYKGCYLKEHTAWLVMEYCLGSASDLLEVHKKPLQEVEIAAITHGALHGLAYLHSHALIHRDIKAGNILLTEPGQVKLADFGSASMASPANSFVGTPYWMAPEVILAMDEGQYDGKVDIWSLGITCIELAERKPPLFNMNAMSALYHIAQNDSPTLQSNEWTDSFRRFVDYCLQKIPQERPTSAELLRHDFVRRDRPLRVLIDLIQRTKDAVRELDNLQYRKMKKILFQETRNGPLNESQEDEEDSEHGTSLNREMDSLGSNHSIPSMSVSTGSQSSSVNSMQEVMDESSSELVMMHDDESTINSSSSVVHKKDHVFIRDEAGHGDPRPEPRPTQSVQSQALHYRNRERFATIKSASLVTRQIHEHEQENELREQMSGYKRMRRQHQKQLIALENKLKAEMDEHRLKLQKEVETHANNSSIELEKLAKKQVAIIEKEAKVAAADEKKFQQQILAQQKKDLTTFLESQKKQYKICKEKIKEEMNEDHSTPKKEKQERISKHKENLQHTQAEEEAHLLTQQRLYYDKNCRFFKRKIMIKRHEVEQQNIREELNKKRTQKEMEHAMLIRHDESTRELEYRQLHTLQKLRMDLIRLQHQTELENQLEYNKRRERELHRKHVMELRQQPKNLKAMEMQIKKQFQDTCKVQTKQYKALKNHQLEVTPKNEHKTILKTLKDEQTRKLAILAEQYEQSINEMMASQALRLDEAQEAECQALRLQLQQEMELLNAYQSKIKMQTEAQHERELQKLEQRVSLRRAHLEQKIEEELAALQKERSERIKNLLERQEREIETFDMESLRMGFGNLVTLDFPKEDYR
Method in brief: as §1

FGFR4 = FGFR4 (Homo sapiens, UniProt P22455)
FGFR4, sequence (P22455 22-802, species assumed): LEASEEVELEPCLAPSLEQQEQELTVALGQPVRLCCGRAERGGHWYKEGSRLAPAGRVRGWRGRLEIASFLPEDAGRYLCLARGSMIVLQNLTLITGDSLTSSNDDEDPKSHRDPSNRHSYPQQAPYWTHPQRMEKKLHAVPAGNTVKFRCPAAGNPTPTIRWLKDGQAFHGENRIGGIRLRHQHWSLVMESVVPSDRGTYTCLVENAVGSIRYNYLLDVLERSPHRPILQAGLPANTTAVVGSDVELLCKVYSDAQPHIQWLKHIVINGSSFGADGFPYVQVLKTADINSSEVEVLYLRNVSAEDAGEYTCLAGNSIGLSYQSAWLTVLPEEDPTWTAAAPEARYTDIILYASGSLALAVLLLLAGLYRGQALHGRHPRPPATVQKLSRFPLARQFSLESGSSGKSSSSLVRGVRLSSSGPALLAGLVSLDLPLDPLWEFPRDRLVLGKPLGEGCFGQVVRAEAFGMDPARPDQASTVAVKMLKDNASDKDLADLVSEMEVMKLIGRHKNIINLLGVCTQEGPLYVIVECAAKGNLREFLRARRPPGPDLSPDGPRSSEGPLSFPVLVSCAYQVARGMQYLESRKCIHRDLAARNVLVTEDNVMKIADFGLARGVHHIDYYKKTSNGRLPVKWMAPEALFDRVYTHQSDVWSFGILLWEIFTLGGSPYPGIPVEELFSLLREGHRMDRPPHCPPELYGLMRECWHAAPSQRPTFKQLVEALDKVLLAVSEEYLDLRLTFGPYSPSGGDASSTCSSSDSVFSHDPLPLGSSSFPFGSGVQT
Method in brief: as §1

STK17B/DRAK2 = molecular target: T5, STK17B/DRAK2 (Homo sapiens, UniProt O94768)
T5 construct: AssayQuant Technologies, Inc. (contract assay)
T5 sequence (O94768 1-372): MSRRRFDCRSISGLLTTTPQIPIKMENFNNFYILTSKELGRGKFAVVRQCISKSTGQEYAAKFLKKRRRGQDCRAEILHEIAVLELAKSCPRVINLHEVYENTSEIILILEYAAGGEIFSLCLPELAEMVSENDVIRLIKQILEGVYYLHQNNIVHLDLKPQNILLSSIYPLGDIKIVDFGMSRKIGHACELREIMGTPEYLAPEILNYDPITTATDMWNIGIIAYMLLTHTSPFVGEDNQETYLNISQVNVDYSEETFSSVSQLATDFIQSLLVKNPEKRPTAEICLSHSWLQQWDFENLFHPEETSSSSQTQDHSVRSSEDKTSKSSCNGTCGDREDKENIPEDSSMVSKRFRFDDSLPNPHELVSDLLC
Method in brief: as §1

T1 sequence (P49840 whole entry, species assumed): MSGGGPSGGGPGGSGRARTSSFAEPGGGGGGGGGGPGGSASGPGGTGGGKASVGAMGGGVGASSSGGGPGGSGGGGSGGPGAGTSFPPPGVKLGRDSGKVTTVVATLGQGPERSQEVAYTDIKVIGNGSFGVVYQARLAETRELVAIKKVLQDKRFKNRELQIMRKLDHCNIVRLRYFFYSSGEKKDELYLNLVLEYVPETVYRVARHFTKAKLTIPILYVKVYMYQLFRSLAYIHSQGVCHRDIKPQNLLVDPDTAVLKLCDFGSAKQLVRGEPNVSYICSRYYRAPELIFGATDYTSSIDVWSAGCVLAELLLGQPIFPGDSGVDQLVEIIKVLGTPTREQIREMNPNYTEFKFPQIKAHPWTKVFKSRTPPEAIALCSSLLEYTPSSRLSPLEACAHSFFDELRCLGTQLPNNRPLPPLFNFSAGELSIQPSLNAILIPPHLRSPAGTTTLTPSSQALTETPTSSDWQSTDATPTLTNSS

Row | Compound | inhibition at 1 µM (GSK3A) | inhibition at 1 µM (EPHA7) | inhibition at 1 µM (SRPK2) | inhibition at 1 µM (MERTK/MER) | inhibition at 1 µM (TAOK3) | inhibition at 1 µM (FGFR4) | inhibition at 1 µM (STK17B/DRAK2)
1 | C=CC(=O)N1CCCC(c2c(F)cc(C(N)=O)c3[nH]c4c(c23)CCCCC4)C1 (single isomer, unassigned) [Compound 5-6] | 2.9% | -0.1% | 24.9% | -0.8% | 14.1% | 24.5% | 0.3%
2 | C=CC(=O)N1CCC[C@@H](c2c(F)cc(C(N)=O)c3[nH]c4c(c23)CC2(CC4)CC2)C1 [Compound 6-2, (S)-5-(1-acryloylpiperidin-3-yl)-6-fluoro-1,2,4,9-tetrahydrospiro[carbazole-3,1′-cyclopropane]-8-carboxamide] | -5.1% | 5.1% | -60.6% | 12.4% | 1.6% | 4.9% | -26.9%
3 | C=CC(=O)N1CCC[C@@H](c2c(F)cc(C(N)=O)c3[nH]c4c(c23)CCC4)C1 [Compound 10-2, (S)-8-(1-acryloylpiperidin-3-yl)-7-fluoro-1,2,3,4-tetrahydrocyclo-penta[b]indole-5-carboxamide] | -37.7% | -4.7% | -29.1% | 14.8% | -2.9% | 9.8% | -23.7%
